One assay is filed under the species Rattus norvegicus. Briefly: Inhibition of blood brain barrier choline transporter-mediated [3H]choline uptake in Fischer-344 rat brain at 250 uM by perfusion technique. It is filed as tissue-based.
The nature of assay [1]: Inhibition of nAChR-mediated nicotine-induced [3H]dopamine release.

`c1ccc2c(c1)ccc[n+]2CCCCCC[n+]1cccc2ccccc21` gave a logKi in the assay listed under Rattus norvegicus of 1.26.
Take `Cc1ccc[n+](CCCCCCCCCCCC[n+]2cccc(C)c2)c1`: the IC50 in assay [1] was 2 nM.
In the case of `Cc1cc[n+](C#Cc2ccc(-c3ccc(C#C[n+]4ccc(C)c(C)c4)cc3)cc2)cc1C`, in the assay listed under Rattus norvegicus, the logKi worked out at 1.98.
On the same count and under the same terms, the figure for `Cc1cccc[n+]1CCCc1ccc(-c2ccc(CCC[n+]3ccccc3C)cc2)cc1` is 2; for `Cc1cc[n+](CCCc2ccc(-c3ccc(CCC[n+]4ccc(C)cc4)cc3)cc2)cc1` it is 1.63.
On the same count and under the same terms, the figure for `Cc1cc[n+](CCCCCCCCCCCC[n+]2ccc(C)cc2)cc1` is 1.93.
Same read-out and setting: the figure for `CCCCC#CCCCCCC[n+]1cccc(C2CCCN2C)c1` (stereo unspecified) is 1.92; for `c1cc(-c2ccc(CCC[n+]3ccc4c(c3)CCCC4)cc2)ccc1CCC[n+]1ccc2c(c1)CCCC2` it is 1.2.
`CC[N+](CC)(CC)CCCCCCCCCCCC[n+]1cccc(C)c1`: in the assay filed under Rattus norvegicus, the logKi turned out to be 1.34.
Same read-out and setting: as for `OCCCc1ccc[n+](CCCc2ccc(CCC[n+]3cccc(CCCO)c3)cc2)c1`, the figure is 2.09; as for `Cc1cc[n+](CCC#Cc2ccc(C#CCC[n+]3ccc(C)cc3)cc2)cc1`, 0.929; as for `C(#Cc1ccc(C#CCC[n+]2ccc3c(c2)CCCC3)cc1)CC[n+]1ccc2c(c1)CCCC2`, 0.732.
The same measure, in the same setting: as for `CCCCc1ccc(CCCC[n+]2ccc(C)cc2)cc1`, the figure is 2.69; as for `CN1CCCC1c1ccc[n+](CCCc2ccc(-c3ccc(CCC[n+]4cccc(C5CCCN5C)c4)cc3)cc2)c1` (stereo unspecified), 1.73.
Same read-out and setting: as for `Cc1cc(C)c[n+](CCC#Cc2ccc(C#CCC[n+]3cc(C)cc(C)c3)cc2)c1`, the figure is 0.867.
In the assay listed under Rattus norvegicus, `Cc1cc(C)c[n+](CCCCc2ccc(CCCC[n+]3cc(C)cc(C)c3)cc2)c1` showed a logKi of 2.56.
Turning to `Cc1cc(C)c[n+](CCCCCCCCCCC[n+]2cc(C)cc(C)c2)c1`, the logKi in the assay filed under Rattus norvegicus came out at 1.81.
For `C1#Cc2ccc[n+](c2)CCCCCCCCCCC[n+]2cccc(c2)C#CCCCCCCCC1`, in the assay listed under Rattus norvegicus, the logKi is 1.18.
Still for that read-out and setting: as for `Cc1cc[n+](CCC#Cc2ccc(C#CCC[n+]3ccc(C)c(C)c3)cc2)cc1C`, the figure is 0.924.
The same measure, in the same setting: the figure for `OCCCc1ccc[n+](CCCc2ccc(-c3ccc(CCC[n+]4cccc(CCCO)c4)cc3)cc2)c1` is 1.86; for `CCCCC#CCCCCCC[n+]1ccc(C)cc1` it is 2.58; for `C1#Cc2ccc[n+](c2)CCCCCCCCC[n+]2cccc(c2)C#CCCCCCCCC1` it is 0.146.
With `C1#Cc2ccc[n+](c2)CCCCCC[n+]2cccc(c2)C#CCCCCCCCC1`, the logKi in the assay listed under Rattus norvegicus was found to be 1.53.
With `Cc1ccc[n+](CCC#Cc2ccc(C#CCC[n+]3cccc(C)c3)cc2)c1`, the logKi in the assay filed under Rattus norvegicus turned out to be 0.595.
Still for that read-out and setting: the figure for `c1cc2c([n+](CCCc3ccc(-c4ccc(CCC[n+]5cccc6c5CCCC6)cc4)cc3)c1)CCCC2` is 1.37.
Same read-out and setting: the figure for `Cc1cc[n+](CCCc2ccc(-c3ccc(CCC[n+]4ccc(C)c(C)c4)cc3)cc2)cc1C` is 1.75.

(Values after ChEMBL document CHEMBL1159105, “Predictive screening model for potential vector-mediated transport of cationic substrates at the blood-brain barrier choline transporter” (Bioorg Med Chem Lett, 2010).)
